Test results taken from patent US12186358B2, “Compositions and methods for supporting immune health” (Plexus Worldwide, LLC, priority 2021, dated 2025).

Columns and labels:
Format in all cases: cell-based, Human
Details in all cases: LPS 0.1 ng/mL
IL-12p40 = experiment: Cytokine expression in PBMC supernatants (Luminex multiplex): IL-12p40
Experimental: (§1) An exemplary natural-based composition is evaluated in an in vitro Peripheral Blood […] Cells cellular inflammation model.
(§2) Test Item Preparation: 120 mg of the exemplary composition (Project Shield) was dissolved in 6000 μL of CGM on the day of use to create a 2% (w/v) Dilution Stock Solution. A 2 ng/mL Working Stock of Lipopolysaccharides (“LPS”) was prepared fresh with IM and stored at 2-8° C. 10 μL LPS (2 ng/mL) was added to the appropriate wells for a final concentration of 0.1 ng/mL.
(§3) Complete Growth Media (CGM): To formulate CGM, RPMI was supplemented with 10% FBS and 100 U/mL penicillin+100 μg/mL streptomycin. CGM was prepared aseptically and stored at 2-8° C. for the duration of the study. CGM was warmed to 37° C. prior to use.
(§4) Cell Culture Set-up: Cells were thawed according to manufacturer's instructions, washed in CGM and assessed for viability using trypan blue staining. A stock cell solution of 2×10^6 cells/mL suspended in CGM was prepared. 100 μL of the stock solution was added to appropriate wells of a 96-well plate to seed 2×10^5 cells per well. […]
(§5) As illustrated in FIGS. 1-8, inflammatory cytokine expression for cell supernatants at 48 hours post stimulation/treatment. Expression was assessed by multiplex using the Luminex platform for the following cytokines: IFNγ, IL-1β, IL-6, IL-8, IL-10, IL-12p40, IL-12p70, TNF-α. […]

IL-10 = experiment: Cytokine expression in PBMC supernatants (Luminex multiplex): IL-10
Experimental: as §1, §2, §3, §4, §5

IL-1β = experiment: Cytokine expression in PBMC supernatants (Luminex multiplex): IL-1β
Experimental: as §1, §2, §3, §4, §5

IL-12p70 = experiment: Cytokine expression in PBMC supernatants (Luminex multiplex): IL-12p70
Experimental: as §1, §2, §3, §4, §5

IL-8 = experiment: Cytokine expression in PBMC supernatants (Luminex multiplex): IL-8
Experimental: as §1, §2, §3, §4, §5

IFNγ = experiment: Cytokine expression in PBMC supernatants (Luminex multiplex): IFNγ
Experimental: as §1, §2, §3, §4, §5

TNF-α = experiment: Cytokine expression in PBMC supernatants (Luminex multiplex): TNF-α
Experimental: as §1, §2, §3, §4, §5

IL-6 = experiment: Cytokine expression in PBMC supernatants (Luminex multiplex): IL-6
Experimental: as §1, §2, §3, §4, §5

Substance: Lipopolysaccharides [LPS]
- IL-12p40, LPS control Group vs Media Control (IL-12p40; donor 1, 48 h): significantly increased
- IL-12p40, LPS control Group vs Media Control (IL-12p40; donor 2, 48 h): significantly increased
- IL-10, LPS control Group vs Media Control (IL-10; donor 1, 48 h): significantly increased
- IL-10, LPS control Group vs Media Control (IL-10; donor 2, 48 h): not donor 2
- IL-1β, LPS control Group vs Media Control (IL-1β; donor 1, 48 h): not significantly increased
- IL-1β, LPS control Group vs Media Control (IL-1β; donor 2, 48 h): not significantly increased
- IL-12p70, LPS control Group vs Media Control (IL-12p70; donor 1, 48 h): significantly increased
- IL-12p70, LPS control Group vs Media Control (IL-12p70; donor 2, 48 h): significantly increased
- IL-8, LPS control Group vs Media Control (IL-8; donor 1, 48 h): not donor 1
- IL-8, LPS control Group vs Media Control (IL-8; donor 2, 48 h): significantly increased
- IFNγ, LPS control Group vs Media Control (IFNγ; donor 1, 48 h): significantly increased
- IFNγ, LPS control Group vs Media Control (IFNγ; donor 2, 48 h): significantly increased
- TNF-α, LPS control Group vs Media Control (TNF-α; donor 1, 48 h): not donor 1
- TNF-α, LPS control Group vs Media Control (TNF-α; donor 2, 48 h): significantly increased
- IL-6, LPS control Group vs Media Control (IL-6; donor 1, 48 h): significantly increased
- IL-6, LPS control Group vs Media Control (IL-6; donor 2, 48 h): significantly increased
